Results published in patent publication US11759651B2, “In vivo visualization and control of pathological changes in neural circuits” (THE REGENTS OF THE UNIVERSITY OF CALIFORNIA, priority 2011, dated 2023).
Like-named read-outs stand apart in the source and are kept apart here.

Tests used:
[1] = tested on: hippocampal network activity; details: cited from earlier work
APP^L/S mice [2] = test: APP immunolabeling for dystrophic neurites and Thioflavin S staining for amyloid plaques in hippocampus; format: in vivo; details: APP^L/S mice given vehicle or LM11A-31; transgenic mouse model of AD
APP^L/S mice [3] = test: Choline acetyltransferase immunostaining of basal forebrain sections; format: in vivo, mouse; details: APP^L/S mice treated with LM11A-31
Description: Scale bars=25 μm. b, Photomicrograph of choline acetyltransferase-immunostained basal forebrain sections. […] Statistical significance was determined using ANOVA and post-hoc Student-Neuman-Keuls testing.

APP/PS1 mice = test: LTP in the hippocampus; format: in vivo, mouse; details: APP/PS1-vehicle vs. APP/PS1-LM11A-31, p=0.02, wt-vehicle vs. wt-LM11A-31, NS
APPL/S mice = test: Object recognition test; format: in vivo, mouse; details: ANOVA and post-hoc Student-Neuman-Keuls testing
[4] = 10 μM NBQX and 25 μM D-AP5 applied together, stimulus pulse applied to DG, 400 μm-thick ventral hippocampal slice

**Q.** Which VSDI signal [1, 4] does the source give for `NC(CCCP(=O)(O)O)C(=O)O` [D-AP5] here?
**A.** abolished

**Q.** For `COc1ccc(-c2ccc(=N)n(CCCC(=O)O)n2)cc1` [GABAzine], which VSDI signal [1] is on record?
**A.** confirmed signal extinction

**Q.** For `CC[C@H](C)[C@H](N)C(=O)NCCN1CCOCC1` [LM11A-31], which “dystrophic neurites and amyloid plaque formation in the hippocampus” value (APP^L/S mice [2]) is on record?
**A.** rescued significantly

**Q.** What about the “length, volume and branching of cholinergic neurites in the basal forebrain” value (APP^L/S mice [3]) of the same compound?
**A.** increased length, volume, and branching of cholinergic neurites

**Q.** And the LTP (APP/PS1 mice)?
**A.** normalizes LTP

**Q.** What about the object recognition deficits (APPL/S mice) of the same compound?
**A.** prevented object recognition deficits

**Q.** With `NS(=O)(=O)c1cccc2c1c([N+](=O)[O-])cc1nc(O)c(O)nc12` [NBQX] as the compound, how does the VSDI signal [1, 4] read?
**A.** abolished
